The nature of data set [1]: In vitro stability in PBS buffer (radiochemical purity). Particulars: 24 h, paper chromatography. Type of data set: physicochemical. As for the experimental part:
The purity of [^125I]I-pHLIP (Var7) was determined by paper chromatography. Normal saline was used as the developing agent, and Xinhua Grade 1 chromatography paper was used as the stationary phase. An appropriate amount of [^125I]I-pHLIP (Var7) eluent was aspirated by a capillary pipette and spotted at the origin of the chromatographic filter paper. After drying, the paper was placed vertically into a test tube containing the developing agent; the unfolded chromatographic filter paper was removed, air dried, and cut at intervals of 1 cm. The radioactivity count was measured segment by segment to calculate the radiochemical purity.
The purified [^125I]I-pHLIP (Var7) was placed at 4°C, at room temperature (25°C) in PBS buffer, and at 37°C in mouse serum. The radiochemical purity at different time points was measured, and the stability was determined. • Two hundred microliters of purified [^125I]I-pHLIP (Var7) solution was placed at 4°C and at room temperature in PBS buffer. Radiochemical purity was determined immediately after purification and at 1, 2, 4, 8, and 24 h after purification • Fifty microliters of purified [^125I]I-pHLIP (Var7) solution was mixed with 100 μL of mouse serum and placed in a 37°C water bath. Radiochemical purity was determined immediately after mixing and at 1, 2, 4, 8, and 24 h after mixing

For the next data set, the system named is MDA-MB-231 cells. Nature of the data set: Cell binding fraction (cellular uptake test). Type of data set: cell-based, human. Particulars: for binding fraction B/(B + F) × 100%: 3.7 kBq per well, γ counter, mean ± SD. As to the method: The human breast cancer cell line MDA-MB-231 was purchased from Shanghai Institute of Biochemistry and Cell Biology, Chinese Academy of Sciences and cultured in L-15 medium containing 10% fetal bovine serum at 37°C without CO2.
• Cell Plating. After the MDA-MB-231 cells were grown to greater than 90% confluence, the cell concentration was adjusted to approximately 1.0 × 10^5 cells/mL, 1 mL of the cell suspension was added to each well of a 12-well plate, and cells were cultured overnight at 37°C in a cell incubator. • Drug Administration. At the logarithmic growth phase, the cells were treated with drugs on the day after attachment; 3.7 kBq of [^125I]I-pHLIP (Var7) (20 μL volume) was added to each well. The pH inside the wells was adjusted to 7.4 and 6.0, yielding two groups of cells according to the pH value. • After 10 min, 40 min, 1 h, and 2 h of culture without CO2, the supernatant was aspirated into a tube and washed with PBS of the corresponding pH (pH 7.4 and 6.0) twice. The wash solution was also added to the supernatant tube. The cells were completely digested with trypsin, after which the cell suspension was aspirated into a tube and washed twice with PBS; the wash solution was also added to the tube. The radioactive counts of the cell tube (B) and supernatant tube (F) were measured by a γ counter. The cell binding fraction of the marker was calculated as B/(B + F) × 100%

The structures appear in SMILES notation. Residues, ends and D or L forms follow the SMILES beside them.

In the case of `CC(C)C[C@H](NC(=O)[C@H](CCC(=O)O)NC(=O)[C@H](CC(C)C)NC(=O)[C@H](CC(C)C)NC(=O)[C@H](CC(C)C)NC(=O)[C@@H](NC(=O)[C@H](CCC(=O)O)NC(=O)[C@@H](NC(=O)[C@@H]1CCCN1C(=O)[C@H](Cc1ccccc1)NC(=O)[C@H](CC(C)C)NC(=O)[C@H](Cc1c[nH]c2ccccc12)NC(=O)[C@H](CCC(=O)O)NC(=O)[C@H](CC(C)C)NC(=O)[C@H](Cc1ccc(O)c(I)c1)NC(=O)[C@H](CCCNC(=N)N)NC(=O)[C@H](C)NC(=O)[C@H](Cc1c[nH]c2ccccc12)NC(=O)[C@@H]1CCCN1C(=O)[C@H](CC(N)=O)NC(=O)[C@H](CCC(N)=O)NC(=O)[C@H](CCC(=O)O)NC(=O)[C@H](CCC(=O)O)NC(=O)[C@H](C)N)[C@@H](C)O)[C@@H](C)O)C(N)=O` [[^125I]I-pHLIP (Var7)] (HELM PEPTIDE1{A.E.E.Q.N.P.W.A.R.[O=C([C@H](Cc1ccc(O)c(I)c1)N[*:1])[*:2]].L.E.W.L.F.P.T.E.T.L.L.L.E.L.[am]}$$$$V2.0), the “stability (radiochemical purity)” value in data set [1] (4°C) and in data set [1] (room temperature (25°C)) was “higher than 98%” each time. Also, the “binding fraction B/(B + F) × 100%” value in the data set on MDA-MB-231 cells (pH 6.0, 10 min) came to 1.9 ± 0.1%; in the data set with MDA-MB-231 cells (pH 6.0, 40 min), 3.5 ± 0.1%; with MDA-MB-231 cells (pH 7.4, 10 min), 0.9 ± 0.1%; with MDA-MB-231 cells (pH 7.4, 40 min) it was 0.8 ± 0.1%; in the data set with MDA-MB-231 cells (pH 7.4, 1 h), 0.8 ± 0.1%; in the data set with MDA-MB-231 cells (pH 7.4, 2 h), 0.6 ± 0.1%. In addition, the “binding to MDA-MB-231 cells (in words)” value in the data set with MDA-MB-231 cells (pH 7.4) is recorded as “essentially did not bind”.

(Values after PMC7953584, “An Experimental Study on [^125I]I-pHLIP (Var7) for SPECT/CT Imaging of an MDA-MB-231 Triple-Negative Breast Cancer Mouse Model by Targeting the Tumor Microenvironment” (Molecular Imaging, 2021).)
